Experimental data: article PMC11945486, “TAS1R2/TAS1R3 Single-Nucleotide Polymorphisms Affect Sweet Taste Receptor Activation by Sweeteners: The SWEET Project” (Nutrients, 2025)
Read-outs that look alike come from different tables or passages of the source. Blank lines part the entries; values can stand above or below the molecule they belong to. No end group written: not given here.

Biological target: T1, human TAS1R2-WT/TAS1R3-R813K (Homo sapiens, UniProt Q7RTX0+Q8TE23, R813K)
T1 construct: expressed in transfected cells; host or cells: HEK293T stably expressing Gα16gust44
T1 sequence (Q8TE23 20-839): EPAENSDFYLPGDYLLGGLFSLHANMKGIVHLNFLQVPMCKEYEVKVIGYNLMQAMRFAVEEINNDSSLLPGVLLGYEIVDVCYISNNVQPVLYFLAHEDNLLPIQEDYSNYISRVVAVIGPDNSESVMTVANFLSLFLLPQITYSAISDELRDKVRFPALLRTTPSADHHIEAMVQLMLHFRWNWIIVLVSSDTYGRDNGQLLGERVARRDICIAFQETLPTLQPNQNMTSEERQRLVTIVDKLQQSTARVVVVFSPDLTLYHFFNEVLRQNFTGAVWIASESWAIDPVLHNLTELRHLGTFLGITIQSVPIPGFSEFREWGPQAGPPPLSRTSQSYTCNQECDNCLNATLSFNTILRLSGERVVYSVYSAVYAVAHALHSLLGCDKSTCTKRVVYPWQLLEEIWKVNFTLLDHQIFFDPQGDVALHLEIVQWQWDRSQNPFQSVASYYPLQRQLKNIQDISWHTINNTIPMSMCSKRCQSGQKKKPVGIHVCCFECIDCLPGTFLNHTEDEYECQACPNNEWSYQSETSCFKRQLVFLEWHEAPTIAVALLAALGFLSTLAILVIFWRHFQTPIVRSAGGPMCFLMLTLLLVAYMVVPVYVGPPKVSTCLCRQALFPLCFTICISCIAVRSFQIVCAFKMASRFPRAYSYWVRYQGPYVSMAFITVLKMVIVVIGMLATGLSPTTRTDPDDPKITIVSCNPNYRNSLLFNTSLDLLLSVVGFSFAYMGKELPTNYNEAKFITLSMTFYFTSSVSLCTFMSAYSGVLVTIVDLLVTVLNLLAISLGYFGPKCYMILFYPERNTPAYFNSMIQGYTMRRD
T1 sequence (Q7RTX0 21-852 R813K): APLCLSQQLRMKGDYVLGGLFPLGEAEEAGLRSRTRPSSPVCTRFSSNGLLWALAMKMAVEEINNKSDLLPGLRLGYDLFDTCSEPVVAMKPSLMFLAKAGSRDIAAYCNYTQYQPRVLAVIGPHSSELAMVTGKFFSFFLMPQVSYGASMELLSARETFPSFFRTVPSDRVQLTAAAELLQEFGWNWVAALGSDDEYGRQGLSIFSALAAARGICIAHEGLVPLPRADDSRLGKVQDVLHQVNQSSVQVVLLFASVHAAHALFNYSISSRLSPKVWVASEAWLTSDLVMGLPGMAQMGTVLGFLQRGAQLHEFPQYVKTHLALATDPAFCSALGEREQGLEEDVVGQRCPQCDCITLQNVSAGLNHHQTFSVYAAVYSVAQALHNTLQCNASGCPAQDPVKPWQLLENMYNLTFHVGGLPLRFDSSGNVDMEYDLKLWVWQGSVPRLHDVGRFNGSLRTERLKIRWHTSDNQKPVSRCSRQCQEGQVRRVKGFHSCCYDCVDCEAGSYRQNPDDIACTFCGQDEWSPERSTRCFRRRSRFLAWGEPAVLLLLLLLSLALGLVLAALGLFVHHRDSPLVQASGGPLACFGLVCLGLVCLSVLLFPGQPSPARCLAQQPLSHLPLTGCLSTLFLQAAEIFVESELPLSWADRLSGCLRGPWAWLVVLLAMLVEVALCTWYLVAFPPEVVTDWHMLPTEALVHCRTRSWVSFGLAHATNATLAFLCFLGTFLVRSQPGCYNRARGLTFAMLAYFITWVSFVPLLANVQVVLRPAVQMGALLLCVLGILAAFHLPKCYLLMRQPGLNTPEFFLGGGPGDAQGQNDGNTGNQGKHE
Assay: Calcium mobilisation assay, TAS1R2-WT with TAS1R3 variant R813K
Assay type: cell-based
Details: for Max ΔF/F0: maximal signal amplitude
Excerpt: The coding sequences for TAS1R2 and TAS1R3 were commercially synthesised, and the human codon was optimised for expression in human cells. The coding sequences of human TAS1R2 and TAS1R3 were subcloned and inserted into the mammalian expression vectors pcDNA6/myc-HisA and pcDNA4/myc-HisA (Invitrogen; Thermo Fisher Scientific; Illkirch, France) between the EcoRI and NotI restriction sites, generating the plasmids pcDNA6-TAS1R2 and pcDNA4-TAS1R3, respectively. To increase protein expression in mammalian cells, an upstream start codon was used, which was a sequence called MAX, corresponding to the QBI SP163 element also described in pcDNA4-HisMax (Invitrogen; Thermo Fisher Scientific; Illkirch, France). To measure the expression level of the receptor by immunohistochemistry, we used the FLAG sequence ([…]) in the C-terminal position, which encodes the FLAG tag epitope. SNP variants of TAS1R2 and TAS1R3 were constructed based on […], respectively, using site-directed mutagenesis (Genewiz; Leipzig, Germany).
The HEK293T cells were kindly provided by Jay P. Slack (Givaudan Flavors Corporation; Cincinnati, OH, USA). HEK293T cells stably transfected with Gα16gust44 [43, 67] were seeded in poly-D-lysine-coated clear-bottom black 96-well plates (0.35 × 10^5 cells/well) in high-glucose DMEM supplemented with 2 mM GlutaMAX, 10% dialysed foetal bovine serum with penicillin/streptomycin and G418 (400 μg/mL) at 37 °C and 6.3% CO2 in a humidified atmosphere as previously reported. […] As a negative control, HEK293T cells were mock-transfected with the empty expression vector. After a further 24 h of incubation, the HEK293T cells were washed with C1 buffer (130 mM NaCl, 5 mM KCl, 10 mM HEPES pH 7.4 and 2 mM CaCl2). The 96-well plates containing the cells were then stimulated with sweet-tasting compounds. […] Different concentration ranges were tested depending on the sweet compound injected. The Ca^2+ changes were expressed as fractional changes in fluorescent light intensity: ΔF/F = (F − F0)/F0, where F was the fluorescent light intensity at each point, and F0 was the value of emitted fluorescent light prior to stimulus application. To calculate dose–response relationships, the changes in fluorescence upon stimulus application were averaged, mock-subtracted and baseline-corrected. The dose–response data obtained were adjusted using a 4-parameter logistic equation. The half-maximal effective concentrations (EC50 values) and maximal signal amplitudes were calculated using SigmaPlot software (version 15.0) (Systat Software; San Jose, CA, USA).
For in vitro calcium mobilisation assay performed on hTAS1R2-SNPs, hTAS1R3-SNPs and mTAS1R3-I60T, 6 to 7 concentrations were tested for each sweet compound, plus buffer alone. All concentration–receptor combinations were measured in duplicate, and each experiment was repeated at least 4 times (8 wells/concentration). Results were expressed for each concentration as ΔF/F mean ± SEM and represented as dose–response curves.

Molecule: O=S(=O)(O)NC1CCCCC1 [Cyclamate, cyclamate]
EC50 (read-out: EC50): 1330 ± 22 µM

Molecule: C[C@H](CC[C@@H](O[C@@H]1O[C@H](CO[C@@H]2O[C@H](CO)[C@@H](O)[C@H](O)[C@H]2O)[C@@H](O)[C@H](O)[C@H]1O[C@@H]1O[C@H](CO)[C@@H](O)[C@H](O)[C@H]1O)C(C)(C)O)[C@H]1CC[C@@]2(C)[C@@H]3CC=C4[C@@H](CC[C@H](O[C@@H]5O[C@H](CO[C@@H]6O[C@H](CO)[C@@H](O)[C@H](O)[C@H]6O)[C@@H](O)[C@H](O)[C@H]5O)C4(C)C)[C@]3(C)[C@H](O)C[C@]12C [Mogroside V, mogroside V]
R1 = Variant EC50/WT EC50: 0.7
Max ΔF/F0: 1.14 ± 0.02
EC50 (read-out: EC50): 22 ± 1.3 µM

Molecule: COc1ccc(CCC(=O)c2c(O)cc(O[C@@H]3O[C@H](CO)[C@@H](O)[C@H](O)[C@H]3O[C@@H]3O[C@@H](C)[C@H](O)[C@@H](O)[C@H]3O)cc2O)cc1O [NHDC, neohesperidin dihydrochalcone]
R1 = Variant EC50/WT EC50: 0.7
Max ΔF/F0: 1.00 ± 0.02
EC50 (read-out: EC50): 34.2 ± 15.2 µM

Molecule: brazzein (QDKCKKVYENYPVSKCQLANQCNYDCKLDKHARSGECFYDEKRNLQCICDYCEY; ends and bridges not checked; cysteine pairing not given here; UniProt P56552 1-54, looked up) [sweet-tasting protein obtained by recombinant production using the yeast Pichia pastoris]
R1 = Variant EC50/WT EC50: 0.5
EC50 (brazzein): 58.0 ± 10.5 mg/L
Max ΔF/F0: 1.00 ± 0.05

Molecule: thaumatin
R1 = Variant EC50/WT EC50: 0.6
Max ΔF/F0: 0.74 ± 0.04

Further lines, results first:

R1 = Variant EC50/WT EC50: 0.7
Max ΔF/F0: 0.40 ± 0.01
EC50 (read-out: EC50): 433 ± 34 µM
Molecule: CC1=CC(=O)NS(=O)(=O)O1 [Acesulfame K, acesulfame K]

R1 = Variant EC50/WT EC50: 0.8
Max ΔF/F0: 0.79 ± 0.02
EC50 (read-out: EC50): 0.98 ± 0.07 µM
Molecule: COC(=O)[C@H](Cc1ccccc1)NC(=O)[C@H](CC(=O)O)NCCC(C)(C)C [Neotame]

R1 = Variant EC50/WT EC50: 0.8
Max ΔF/F0: 1.28 ± 0.16
EC50 (read-out: EC50): 10.4 ± 3.6 µM
Molecule: C=C(C)[C@@H]1CC=C(/C=N/O)CC1 [Perillartine, perillartine]

R1 = Variant EC50/WT EC50: 0.7
Max ΔF/F0: 1.18 ± 0.06
EC50 (read-out: EC50): 27.4 ± 3.4 µM
Molecule: C=C1C[C@@]23CC[C@H]4[C@@](C)(CCC[C@@]4(C)C(=O)O[C@@H]4O[C@H](CO)[C@@H](O)[C@H](O[C@@H]5O[C@H](CO)[C@@H](O)[C@H](O)[C@H]5O)[C@H]4O[C@@H]4O[C@H](CO)[C@@H](O)[C@H](O)[C@H]4O)[C@@H]2CC[C@]1(O[C@@H]1O[C@H](CO)[C@@H](O)[C@H](O[C@@H]2O[C@H](CO)[C@@H](O)[C@H](O)[C@H]2O)[C@H]1O[C@@H]1O[C@H](CO)[C@@H](O)[C@H](O)[C@H]1O)C3 [Rebaudioside M, rebaudioside M]

R1 = Variant EC50/WT EC50: 1.1
Max ΔF/F0: 0.90 ± 0.03
EC50 (read-out: EC50): 120 ± 9 µM
Molecule: OC[C@H]1O[C@H](O[C@]2(CCl)O[C@H](CCl)[C@@H](O)[C@@H]2O)[C@H](O)[C@@H](O)[C@H]1Cl [Sucralose]

EC50 (read-out: EC50): 6.5 ± 0.9 µM
B1: thaumatin (protein)
chain: ATFEIVNRCSYTVWAAASKGDAALDAGGRQLNSGESWTINVEPGTKGGKIWARTDCYFDDSGSGICKTGDCGGLLRCKRFGRPPTTLAEFSLNQYGKDYIDISNIKGFNVPMDFSPTTRGCRGVRCAADIVGQCPAKLKAPGGGCNDACTVFQTSEYCCTTGKCGPTEYSRFFKRLCPDAFSYVLDKPTTVTCPGSSNYRVTFCPTA
modifications: Eight disulfides
notes: sweet-tasting plant protein, E957
